From patent US6028195A, “Piperazine derivatives and process for the preparation thereof” (Samjin Pharmaceutical Co., Ltd., priority 1996, dated 2000)
≈ marks a conversion by molar mass, not a printed value. Like-named read-outs stand apart in the source and are kept apart here.

What was measured:
Assay type in all cases: cell-based
SKMEL-2 (human melanoma) = experiment: SRB assay, in vitro antitumor effect against SKMEL-2; details: Homo sapiens
Method: (§1) In vitro antitumor effect against human tumor cell lines.
(§2) b. 5×10^3 ~2×10^4 cells were added into each well of 96-well plate and cultured in 5% CO2 incubator, at 37° C., for 24 hours.
(§3) c. Each sample drug was dissolved in a little DMSO and diluted with the used medium to a prescribed concentration for experiments, wherein the final concentration of DMSO was controlled below 0.5%.
(§4) d. Medium of each well cultured for 24 hours as above b. was removed by aspiration. Each 200 μl of drug samples prepared in c. was added into each well and the wells were cultured for 48 hours. Tz(time zero) plates were collected at the point of time drugs were added.
(§5) e. According to the SRB assay method, cell fixing with TCA, staining with 0.4% SRB solution, washing with 1% acetic acid and elution of dye with 10 mM Tris solution were carried out on Tz plates and culture-ended plates, and then, OD values were measured at 520 nm.
(§6) a. Time zero(Tz) value was determined with measuring the SRB protein value at the point of time drugs were added.
(§7) b. Control value(C) was determined with the OD value of an well untreated with drug.
(§8) c. Drug-treated test value(T) was determined with the OD value of drug-treated well.
(§9) d. Effects of drugs were estimated with growth stimulation, net growth inhibition, net killing etc. calculated from Tz, C and T.
(§10) e. If T≥Tz, cellular response function was calculated by 100×(T-Tz)/(C-Tz), and if T<Tz, by 100×(T-Tz)/Tz.

XF 498 (human CNS) = experiment: SRB assay, in vitro antitumor effect against XF 498; details: Homo sapiens, XF498; XF-498, 48 hours; read-out: ED50 (the source's name)
Method: as §1, §2, §3, §4, §5, §6, §7, §8, §9, §10

[1] = tested on: A549 (human non-small lung cell); experiment: SRB assay, in vitro antitumor effect against A549; details: Homo sapiens; A549, 48 hours; read-out: ED50 (the source's name)
Method: as §1, §2, §3, §4, §5, §6, §7, §8, §9, §10

HCT-15 (human colon) = experiment: SRB assay, in vitro antitumor effect against HCT-15; details: Homo sapiens
Method: as §1, §2, §3, §4, §5, §6, §7, §8, §9, §10

SKOV-3 (human ovarian) = experiment: SRB assay, in vitro antitumor effect against SKOV-3; details: Homo sapiens; SK-OV-3, 48 hours; read-out: ED50 (the source's name)
Method: as §1, §2, §3, §4, §5, §6, §7, §8, §9, §10

[2] = SK-MEL-2, 48 hours, read-out: ED50 (the source's name)
[3] = HCT 15, 48 hours, read-out: ED50 (the source's name)

Structure (SMILES) | IC50 (SKMEL-2 (human melanoma); [2]) | IC50 (XF 498 (human CNS)) | IC50 [1] | IC50 (SKOV-3 (human ovarian)) | IC50 (HCT-15 (human colon); [3]) | IC50 (HCT-15 (human colon); HCT-15, 48 h, read-out: ED50) | IC50 (SKMEL-2 (human melanoma); SK-MEL-2, 48 h, read-out: ED50)
COc1cc(C)c(C)cc1NC(=S)N1CCN(c2cc(Cl)cc(Cl)c2)CC1 [Example 201, 1-[(4,5-Dimethyl-2-methoxyphenyl)aminothiocarbonyl]-4-(3,5-dichlorophenyl)piperazine] | 49 ng/mL (≈ 115 nM) | 26 ng/mL (≈ 61.3 nM) | 14 ng/mL (≈ 33 nM) | 53 ng/mL (≈ 125 nM) | – | 71 ng/mL (≈ 167 nM) | –
COc1cc(C)c(C)cc1NC(=S)N1CCN(c2cccc(O)c2)CC1 [Example 206, 1-[(4,5-Dimethyl-2-methoxyphenyl)aminothiocarbonyl]-4-(3-hydroxyphenyl)piperazine] | 520 ng/mL (≈ 1400 nM) | 700 ng/mL (≈ 1880 nM) | 470 ng/mL (≈ 1270 nM) | 540 ng/mL (≈ 1450 nM) | 380 ng/mL (≈ 1020 nM) | – | –
COc1cc(OC)cc(N2CCN(C(=O)N(C)c3cc(C(C)OC)c(C)nc3OC)CC2)c1 (stereo not drawn) [Example 157, 1-{N-[2-Methoxy-5-(1-methoxyethyl)-6-methylpyridin-3-yl]-N-methylaminocarbonyl}-4-(3,5-dimethoxyphenyl)piperazine] | 0.043 ng/mL (≈ 0.0938 nM) | 0.245 ng/mL (≈ 0.534 nM) | 0.002 ng/mL (≈ 0.00436 nM) | 0.002 ng/mL (≈ 0.00436 nM) | 0.211 ng/mL (≈ 0.46 nM) | – | –
COc1cc(C)c(C)cc1NC(=O)N1CCN(c2cccc(Cl)c2)CC1 [Example 177, 1-[(4,5-Dimethyl-2-methoxyphenyl)aminocarbonyl]-4-(3-chlorophenyl)piperazine] | 170 ng/mL (≈ 455 nM) | 120 ng/mL (≈ 321 nM) | 520 ng/mL (≈ 1390 nM) | 390 ng/mL (≈ 1040 nM) | 90 ng/mL (≈ 241 nM) | – | –
COc1nc(C)c(C)cc1NC(=S)N1CCN(c2cccc(O)c2)CC1 [Example 24, 1-[(5,6-Dimethyl-2-methoxypyridin-3-yl)aminothiocarbonyl]-4-(3-hydroxyphenyl)piperazine] | 10 ng/mL (≈ 26.8 nM) | 234 ng/mL (≈ 628 nM) | 30 ng/mL (≈ 80.5 nM) | 6 ng/mL (≈ 16.1 nM) | 10 ng/mL (≈ 26.8 nM) | – | –
COc1cc(OC)cc(N2CCN(C(=O)N(C)c3cc(C)c(C)nc3OC)CC2)c1 [Example 132, 1-[N-(5,6-Dimethyl-2-methoxypyridin-3-yl)-N-methylaminocarbonyl]-4-(3,5-dimethoxyphenyl)piperazine] | 30 ng/mL (≈ 72.4 nM) | 40 ng/mL (≈ 96.5 nM) | 30 ng/mL (≈ 72.4 nM) | 10 ng/mL (≈ 24.1 nM) | 40 ng/mL (≈ 96.5 nM) | – | –
CCc1nc(OC)c(NC(=O)N2CCN(c3cccc(O)c3)CC2)cc1C [Example 14, 1-[(6-Ethyl-2-methoxy-5-methylpyridin-3-yl)aminocarbonyl]-4-(3-hydroxyphenyl)piperazine] | – | 160 ng/mL (≈ 432 nM) | 22 ng/mL (≈ 59.4 nM) | 20 ng/mL (≈ 54 nM) | 7 ng/mL (≈ 18.9 nM) | – | 1 ng/mL (≈ 2.7 nM)

Second part, led by results:

IC50 (SKMEL-2 (human melanoma); [2]) | IC50 (XF 498 (human CNS)) | IC50 [1] | IC50 (SKOV-3 (human ovarian)) | IC50 (HCT-15 (human colon); [3]) | Structure (SMILES) | IC50 (HCT-15 (human colon); HCT-15, 48 h, read-out: ED50) | IC50 (SKMEL-2 (human melanoma); SK-MEL-2, 48 h, read-out: ED50)
560 ng/mL (≈ 1410 nM) | 540 ng/mL (≈ 1360 nM) | 330 ng/mL (≈ 828 nM) | 470 ng/mL (≈ 1180 nM) | 490 ng/mL (≈ 1230 nM) | COc1ccc(C)c(N2CCN(C(=O)N(C)c3cc(C)c(C)nc3OC)CC2)c1 [Example 140, 1-[N-(5,6-Dimethyl-2-methoxypyridin-3-yl)-N-methylaminocarbonyl]-4-(5-methoxy-2-methylphenyl)piperazine] | – | –
1170 ng/mL (≈ 3170 nM) | 1410 ng/mL (≈ 3820 nM) | 420 ng/mL (≈ 1140 nM) | 2270 ng/mL (≈ 6140 nM) | 2090 ng/mL (≈ 5660 nM) | COc1cc(C)c(C)cc1NC(=O)N1CCN(c2ccccc2OC)CC1 [Example 183, 1-[(4,5-Dimethyl-2-methoxyphenyl)aminocarbonyl]-4-(2-methoxyphenyl)piperazine] | – | –
200 ng/mL (≈ 450 nM) | 260 ng/mL (≈ 585 nM) | 180 ng/mL (≈ 405 nM) | 370 ng/mL (≈ 832 nM) | 440 ng/mL (≈ 990 nM) | COc1cc(OC)cc(N2CCN(C(=O)N(C)c3cc(C(C)O)c(C)nc3OC)CC2)c1 (stereo not drawn) [Example 152, 1-{N-[5-(1-Hydroxyethyl)-2-methoxy-6-methylpyridin-3-yl]-N-methylaminocarbonyl}-4-(3,5-dimethoxyphenyl)piperazine] | – | –
90 ng/mL (≈ 204 nM) | 60 ng/mL (≈ 136 nM) | 60 ng/mL (≈ 136 nM) | 100 ng/mL (≈ 227 nM) | 70 ng/mL (≈ 159 nM) | CCC(C)(O)c1cc(N(C)C(=O)N2CCN(c3cc(C)cc(C)c3)CC2)c(OC)nc1C (stereo not drawn) [Example 156, 1-{N-[5-(1-Hydroxy-1-methylpropyl)-2-methoxy-6-methylpyridin-3-yl]-N-methylaminocarbonyl}-4-(3,5-dimethylphenyl)piperazine] | – | –
8.6 ng/mL (≈ 19.4 nM) | 2 ng/mL (≈ 4.52 nM) | 0.9 ng/mL (≈ 2.03 nM) | 9.1 ng/mL (≈ 20.6 nM) | 6.5 ng/mL (≈ 14.7 nM) | COc1cc(OC)cc(N2CCN(C(=O)N(c3cc(C)c(C)nc3OC)C(C)C)CC2)c1 [Example 134, 1-[N-Isopropyl-N-(5,6-dimethyl-2-methoxypyridin-3-yl)aminocarbonyl]-4-(3,5-dimethoxyphenyl)piperazine] | – | –
